Reference: patent US20160058753A1, “Nalmefene for Treatment of Patients with Mood Disorder” (H. LUNDBECK A/S, priority 2013, published 2016)

How the values were obtained:
Rats (Wistar) = test: Forced swim test in rats; assay type: in vivo, rat; details: 0.01, 0.1 and 1 mg/kg s.c. 30 minutes before the test, versus vehicle
Procedure: The method, which detects antidepressant activity, follows that described by Porsolt et al (Eur. J. Pharmacol., 47, 379-391, 1978). Rats forced to swim in a situation from which they cannot escape eventually become immobile. Antidepressants decrease the duration of immobility.
Nalmefene was tested as the sole active compound. Rats (Wistar) were individually placed in a cylinder (height=40 cm; diameter=20 cm) containing 13 cm water (25° C.) for 15 minutes on the first day of the experiment (Session 1) and were then placed back in the water 24 hours later for a 5 minute test (Session 2). The duration of immobility during the 5 minute test was measured. 6 rats were studied per group. The test was performed blind. Nalmefene was evaluated at 3 doses (0.01, 0.1 and 1 mg/kg), administered s.c. 30 minutes before the test, and compared with a vehicle control group.
Data with the test substance were analysed by comparing treated groups with vehicle control using one-way ANOVA followed by post-hoc Dunnett's tests. Data with the reference substance were analysed using unpaired Student's t tests.

κ receptor = κ receptor (Homo sapiens, UniProt P41145); details: in vitro; cited from earlier work
Mice (NMRI) [1] = test: Marble burying test in mouse; assay type: in vivo; details: for Number of marbles covered by sawdust, Mean ± SEM: 30 minute test, 25 marbles
Excerpt: The method, which detects anxiolytic/tranquillizing activity, follows that described by Broekkamp et al (Eur. J. Pharmacol., 126, 223-229, 1986). Mice exposed to novel objects (marbles) will bury them in the sawdust floor covering. Anxiolytics decrease the number of marbles buried at non-sedative doses.
Mice (NMRI) were individually placed in transparent plastic cages (33×21×18 cm) with 5 cm of sawdust on the floor and 25 marbles grouped in the centre of the cage. The cage was covered with an inverted plastic cage. Each test cage, together with the marbles, was impregnated with mouse odor before-hand by leaving 10 mice in the cage for 15 minutes. These mice then played no further role in the experiment.
Nalmefene was tested in the marble burying model as the sole active compound. The number of marbles covered by sawdust (⅔ or more) was counted at the end of a 30 minute test. 12 mice were studied per group. The test was performed blind. Nalmefene was evaluated at 3 doses (0.01, 0.1 and 1 mg/kg), administered s.c. 30 minutes before the test, and compared with a vehicle control group. Clobazam (8 mg/kg s.c.), administered under the same experimental conditions, was used as reference substance. The experiment therefore included 8 groups.
Data with Nalmefene were analysed by comparing treated groups with vehicle control using Kruskall-Wallis test followed by Mann-Whitney U tests. Data with the reference substance were analysed using Mann-Whitney U tests. Due to the number of groups, the study was conducted over 2 separate sub-experiments, each sub-experiment including 6 mice per group.

Mice (NMRI) [2] = test: Forced swim test in mouse; assay type: in vivo; details: for Duration of immobility, Mean ± SEM: last 4 of 6 minutes
Procedure: The method, which detects antidepressant activity, follows that described by Porsolt et al (Arch. Int. Pharmacodyn., 229, 327-336, 1977). Mice forced to swim in a situation from which they cannot escape eventually become immobile. Antidepressants decrease the duration of immobility.
Nalmefene was tested as the sole active compound. Mice (NMRI) were individually placed in a cylinder (height=24 em; diameter=13 em) containing 10 cm water (22° C.) from which they cannot escape. The mice were placed in the water for 6 minutes and the duration of immobility during the last 4 minutes was measured. The latency to the first bout of immobility was also recorded starting from the beginning of the test.
10 mice were studied per group. The test was performed blind. Each test substance was evaluated at 3 doses (0.1, 1 and 10 mg/kg), administered s.c. 30 minutes before the test, and compared with a vehicle control group.
Imipramine (32 mg/kg s.c.), administered under the same experimental conditions, was used as reference substance. The experiment therefore included 8 groups.
Data with the test substance were analysed by comparing treated groups with vehicle control using one-way ANOVA followed by post-hoc Dunnett's tests. Data with the reference substance were analysed using unpaired Student's t tests. Due to the number of groups, the study was conducted over 2 separate sub-experiments, each subexperiment including 5 mice per group.

[3] = tested on: patients with alcohol dependence; test: Study 12013A: clinical efficacy measured by POMS score; assay type: in vivo, human; details: for POMS TMD score: patients with a mood disorder at baseline according to MINI assessment
Excerpt: The term “POMS” is an abbreviation of “profile of mood states” and refers to a selfreport inventory scale developed to assess the effect of e.g. new medication on mood states and mood changes. The scale measures six domains: Tension-Anxiety, Depression-Rejection, Anger-Hostility, Vigour-Activity, Fatigue-Inertia, and Confusion-Bewilderment. A total mood disturbance (TMD) score can be calculated. In general, a lower POMS score indicates a better mood state than a higher score except for vigour-activity, for which a higher POMS score indicates a better mood state. The scale has been described e.g. by McNair et al., Profile of mood states. San Diego, Calif.: Educational and Industrial Testing Service and by Nyenhios and Yamamoto, J. Clin. Psychology, (1999), Vol. 55(1): 79-86.
(§1) The diagnosis of alcohol dependence was based on the DSM-IV-TR criteria. For this purpose, the investigator interviewed the patient in a structured way by using the Mini International Neuropsychiatric Interview (MINI) standardized interview (Lecrubier et al. The Mini International Neuropsychiatric Interview (M.I.N.I.). A short diagnostic structured interview: Reliability and validity according to the CIDI. European Psychiat. (1997), 12: 224-31). The M.I.N.I. is designed as a brief structured interview for the major Axis I psychiatric disorders in DSM-IV. Its use permits a standardised assessment of the diagnostic criteria. The M.I.N.I. interview was used at the screening visit. Clinicians used it after a training session. The M.I.N.I. approach was used to select patients with a mood disorder at baseline in Example 3.
(§2) Another approach to identify patients with a mood disorder is by defining mood disorder at baseline as any ongoing medical history coded by the Medical Dictionary for Regulatory Activities (MedDRA) Preferred Term as ‘Affective Disorder’, ‘Bipolar Disorder’, ‘Depressed Mood’, ‘Depression’, ‘Dysthymic Disorder’, ‘Hypomania’, ‘Major Depression’, ‘Mood Disorder Due To A General Medical Condition’ and/or ‘Seasonal Affective Disorder’. In examples 1 and 2 below patients classified with a mood disorder at baseline was selected based on said MedDRA terms.
Assessment of POMs scores in Study 12013A was used to evaluate the effect of nalmefene on mood states and mood changes throughout the study. The change in POMS scores from baseline are illustrated in FIGS. 3-9.
In general, a lower POMS score indicates a better mood state than a higher score except for vigour, illustrated in FIGS. 7a and 7b, wherein a higher POMS score indicates a better mood state.
(§3) Table 10 below outlines drinking variables and POMS TMD score patients from the 12013A study with a mood disorder at baseline who were classified based on MINI standardized interviews.

[4] = tested on: patients with alcohol dependence; test: Study 12013A: clinical efficacy on the reduction of alcohol consumption (HDD, TAC); assay type: in vivo, human; details: for HDD / TAC: patients with a mood disorder at baseline according to MINI assessment
Excerpt: as §1, §2
The efficacy of nalmefene on the reduction of alcohol consumption in patients with alcohol dependence (DSM-IV) was evaluated in a multi-national, multi-site, randomised, double blind, two parallel group, placebo controlled 1 year safety study (Study 12013A). The efficacy was evaluated over 24 weeks of treatment. The study included outpatients, aged ≧18 years, with a primary diagnosis of alcohol dependence. […] Patients with psychiatric co-morbidity (that is, patients who used stable doses of antipsychotics and/or certain antidepressants) were also included unless the treatment of the psychiatric comorbidity had to take priority over treatment of the drinking problem, or was likely to interfere with study treatment or impairs treatment compliance.
The study included 639 patients, 482 of whom were treated with nalmefene 18 mg in an as-needed dosing regimen. A motivational and adherence enhancing intervention was administered to all the patients to support the patients in changing their behavior and to enhance adherence to treatment.
The efficacy of nalmefene on the reduction of alcohol consumption was measured using two co-primary endpoints: the change from baseline to Month 6 in the monthly number of heavy drinking days (HDDs) and the change from baseline to Month 6 in the average daily total alcohol consumption (TAC). A HDD was defined as a day with a consumption ≧60 g alcohol for men and ≧40 g for women.
as §3

δ receptor = δ receptor (Homo sapiens, UniProt P41143); details: in vitro; cited from earlier work
μ receptor = μ receptor (Homo sapiens, UniProt P35372); details: in vitro; cited from earlier work
[5] = tested on: patients with comorbid bipolar disorders; details: literature; cited from earlier work
[6] = 0.01 mg/kg s.c. 30 minutes before the test
[7] = 0.1 mg/kg s.c. 30 minutes before the test
[8] = 1 mg/kg s.c. 30 minutes before the test
[9] = 10 mg/kg s.c. 30 minutes before the test
[10] = 1 year, nalmefene 18 mg as-needed

Sequence of κ receptor (P41145 whole entry): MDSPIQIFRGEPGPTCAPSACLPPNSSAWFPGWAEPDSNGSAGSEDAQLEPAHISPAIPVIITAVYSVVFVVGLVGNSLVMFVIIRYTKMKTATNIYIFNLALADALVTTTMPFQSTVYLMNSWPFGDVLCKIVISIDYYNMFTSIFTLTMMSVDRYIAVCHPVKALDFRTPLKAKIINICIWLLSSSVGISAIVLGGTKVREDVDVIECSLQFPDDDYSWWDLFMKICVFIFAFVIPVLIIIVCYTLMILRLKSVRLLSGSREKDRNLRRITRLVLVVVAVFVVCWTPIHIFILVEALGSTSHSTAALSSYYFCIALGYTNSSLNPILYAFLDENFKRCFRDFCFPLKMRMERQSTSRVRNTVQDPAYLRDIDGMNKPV
Sequence of μ receptor (P35372 whole entry): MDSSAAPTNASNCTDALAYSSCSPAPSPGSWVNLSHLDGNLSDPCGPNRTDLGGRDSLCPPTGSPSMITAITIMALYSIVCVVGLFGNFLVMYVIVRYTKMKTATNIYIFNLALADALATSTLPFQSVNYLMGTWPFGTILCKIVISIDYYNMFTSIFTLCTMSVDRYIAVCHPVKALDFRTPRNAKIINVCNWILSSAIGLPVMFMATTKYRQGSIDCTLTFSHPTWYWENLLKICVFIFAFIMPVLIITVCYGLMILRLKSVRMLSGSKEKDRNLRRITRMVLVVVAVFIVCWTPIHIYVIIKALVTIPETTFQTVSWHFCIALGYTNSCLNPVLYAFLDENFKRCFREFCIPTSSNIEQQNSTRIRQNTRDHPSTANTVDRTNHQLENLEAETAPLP
Sequence of δ receptor (P41143 whole entry): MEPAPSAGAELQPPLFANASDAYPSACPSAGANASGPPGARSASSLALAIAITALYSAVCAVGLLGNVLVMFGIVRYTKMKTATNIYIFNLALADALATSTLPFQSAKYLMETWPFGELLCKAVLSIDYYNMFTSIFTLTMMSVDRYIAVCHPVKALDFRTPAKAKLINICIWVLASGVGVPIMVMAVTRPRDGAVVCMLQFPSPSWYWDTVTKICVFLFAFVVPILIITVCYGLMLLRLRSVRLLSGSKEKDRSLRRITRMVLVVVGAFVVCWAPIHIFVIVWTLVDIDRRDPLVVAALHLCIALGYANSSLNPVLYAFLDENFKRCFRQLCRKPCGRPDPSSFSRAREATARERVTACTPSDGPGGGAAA

In the case of C=C1CC[C@@]2(O)[C@H]3Cc4ccc(O)c5c4[C@@]2(CCN3CC2CC2)[C@H]1O5 [Nalmefene, 17-(cyclopropylmethyl)-4,5-alpha-epoxy-6-methylenemorphinan-3,14-diol], the “duration of immobility during the 5 minute test” value (Rats (Wistar)) is listed as “No significant effect”, the “activity at the κ receptor” value (κ receptor) is listed as “partial agonist activity” and the “Number of marbles covered by sawdust, % compared with vehicle” value (“Number of marbles covered by sawdust, %” for short) (Mice (NMRI) [1]; [6]) is listed as −5%. The “Number of marbles covered by sawdust, Mean ± SEM” value (“Number … Mean ± SEM” for short) (Mice (NMRI) [1]; [6]) was 23.5 ± 1.2, the “Number … Mean ± SEM” value (Mice (NMRI) [1]; [7]) was 21.5 ± 1.2 and the “Number of marbles covered by sawdust, %” value (Mice (NMRI) [1]; 0.1 mg/kg s.c. 30 minutes before the test, p<0.01) was −13%. For the same compound, the “Number of marbles covered by sawdust, %” value (Mice (NMRI) [1]; 0.1 mg/kg s.c. 30 minutes before the test, p<0.01, listed as nalmefene) was −13%, the “Number of marbles covered by sawdust, %” value (Mice (NMRI) [1]; [8]) was −10% and the “Number … Mean ± SEM” value (Mice (NMRI) [1]; [8]) was 22.4 ± 1.4. The “effect on number of marbles covered by sawdust” value (Mice (NMRI) [1]; 0.01 or 1 mg/kg s.c.) was “no significant effects”, the “Duration of immobility, % compared with vehicle” value (from here on “Duration of immobility, %”) (Mice (NMRI) [2]; [7]) was “+6%” and the “Duration of immobility, Mean ± SEM” value (Mice (NMRI) [2]; [7]) was 206 ± 7 s. The latency to immobility (Mice (NMRI) [2]; 1 mg/kg s.c. 30 minutes before the test, versus vehicle) was “did not significantly affect”, the “Duration of immobility, Mean ± SEM” value (Mice (NMRI) [2]; [8]) was 140 ± 22 s and the “Duration of immobility, %” value (Mice (NMRI) [2]; 1 mg/kg s.c. 30 minutes before the test, p<0.05) was −28%. For the same compound, the “Duration of immobility, %” value (Mice (NMRI) [2]; [9]) was −3%, the “Duration of immobility, Mean ± SEM” value (Mice (NMRI) [2]; [9]) was 189 ± 11 s and the “effect in forced swim test” value (Mice (NMRI) [2]; 0.1 or 10 mg/kg s.c.) was “no effects”. The “POMS TMD score” value [3, 10] was 37, the “POMS TMD score” value ([3]; Baseline, N=22) was 68 and the “general mood state (POMS data overall)” value ([3]; patients with a mood disorder) was “general mood state improves”. For the same compound, the “POMS score at the end of the study versus placebo” value ([3]; patients with a mood disorder at baseline, FIGS. 3b-9b) was “better POMS score”, the “POMS scores versus placebo: total mood disturbance, tension-anxiety, depression-rejection, anger-hostility and confusion” value ([3]; patients with a mood disorder at baseline, weeks 16-24, FIGS. 3b, 4b, 5b, 6b, 9b) was “better POMS scores” and the “pattern in POMS score versus placebo” value ([3]; patients without a mood disorder at baseline, FIGS. 3a-9a) was “no pronounced difference between nalmefene and placebo”. For the same compound, the HDD [4, 10] was 6.0, the TAC [4, 10] was 20.8 g/day and the HDD ([4]; Baseline, N=22) was 16.0. For the same compound, the TAC ([4]; Baseline, N=22) was 80.3 g/day, the alcohol consumption ([4]; patients with a mood disorder at baseline (MedDRA)) was “significally reduced the alcohol consumption” and the “difference between nalmefene and placebo in HDDs” value ([4]; patients with a mood disorder at baseline compared with patients without, week 24, FIG. 1) was “more pronounced”. For the same compound, the “difference between nalmefene and placebo in TAC” value ([4]; patients with a mood disorder at baseline compared with patients without, week 24, FIG. 2) was “more pronounced”, the “reducing TAC versus placebo” value ([4]; total patient group) was “superior to placebo” and the “reducing the number of HDDs versus placebo” value ([4]; total patient group) was “superior to placebo”. For the same compound, the “activity at the δ receptor” value (δ receptor) was “antagonist activity” and the “activity at the μ receptor” value (μ receptor) was “antagonist activity”.
In the case of O=C1CCc2ccc(OCCCCN3CCN(c4cccc(Cl)c4Cl)CC3)cc2N1 [aripiprazole], the “efficacy on measures of alcohol use and dependence” value [5] is listed as “ineffective”.
In the case of OCCOCCN1CCN(C2=Nc3ccccc3Sc3ccccc32)CC1 [quetiapine], the “efficacy on measures of alcohol use and dependence” value [5] is listed as “ineffective”.
